Assay results reported in patent US9526721B2, “Tetrahydroprotoberbine compounds and uses thereof in the treatment of neurological, psychiatric and neurodegenerative diseases” (priority 2012, dated 2016).

Assays:
D4.2 = molecular target: T1, D4.2 (Homo sapiens, UniProt P21917, DEL265-296); test: Receptor binding, dopamine D4.2; settings: CHO cells
T1 construct: host or cells: CHO cells
T1 sequence (P21917 with tags, fused parts or gaps DEL265-296): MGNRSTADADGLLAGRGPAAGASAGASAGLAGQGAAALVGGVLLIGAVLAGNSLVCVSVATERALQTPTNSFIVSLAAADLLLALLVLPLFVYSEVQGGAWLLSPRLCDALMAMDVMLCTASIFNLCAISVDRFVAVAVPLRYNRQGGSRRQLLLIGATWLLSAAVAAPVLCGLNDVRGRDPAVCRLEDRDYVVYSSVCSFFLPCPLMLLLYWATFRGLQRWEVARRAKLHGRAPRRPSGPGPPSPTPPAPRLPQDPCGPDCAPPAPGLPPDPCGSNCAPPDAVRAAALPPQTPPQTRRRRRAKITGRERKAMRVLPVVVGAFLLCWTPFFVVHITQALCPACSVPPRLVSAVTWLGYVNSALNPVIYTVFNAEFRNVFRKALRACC
Description: (§1) All receptors tested were heterologously expressed CHO cells and IC50 values were determined by a non-linear, least squares regression analysis using MathIQ (ID Business Solution Ltd, UK). Ki was calculated using the equation of Cheng and Prusoff (1973, Biochem. Pharmacol 22:23099-3108) derived from the observed IC50 of the tested compound, the concentration of radioligand employed in the assay, and the historical values for the Kd of the ligand (obtained experimentally at MDS Pharma Services).

D2L = molecular target: T2, D2L (Homo sapiens, UniProt P14416); test: Receptor binding, dopamine D2L; settings: for Ki: receptor expressed in CHO cells, read-out: Ki, D2L
T2 construct: host or cells: CHO cells
Description: as §1
(§2) All receptors were heterologously expressed CHO cells and IC50 values were determined by a non-linear, least squares regression analysis using MathIQ (ID Business Solution Ltd, UK). K1 was calculated (Y. Cheng & Prusoff 1973) from the observed IC50 of the tested compound, the concentration of radioligand employed in the assay, and the historical values for the Kd of the ligand (obtained experimentally at MDS Pharma Services).

5HT2A = molecular target: T3, 5HT2A (Homo sapiens, UniProt P28223); test: Receptor binding, 5HT2A; settings: receptor expressed in CHO cells
T3 construct: host or cells: CHO cells
Description: as §1, §2

5HT1A = molecular target: T4, 5HT1A (Homo sapiens, UniProt P08908); test: Receptor binding, 5HT1A; settings: receptor expressed in CHO cells
T4 construct: host or cells: CHO cells
T4 sequence (P08908 1-422): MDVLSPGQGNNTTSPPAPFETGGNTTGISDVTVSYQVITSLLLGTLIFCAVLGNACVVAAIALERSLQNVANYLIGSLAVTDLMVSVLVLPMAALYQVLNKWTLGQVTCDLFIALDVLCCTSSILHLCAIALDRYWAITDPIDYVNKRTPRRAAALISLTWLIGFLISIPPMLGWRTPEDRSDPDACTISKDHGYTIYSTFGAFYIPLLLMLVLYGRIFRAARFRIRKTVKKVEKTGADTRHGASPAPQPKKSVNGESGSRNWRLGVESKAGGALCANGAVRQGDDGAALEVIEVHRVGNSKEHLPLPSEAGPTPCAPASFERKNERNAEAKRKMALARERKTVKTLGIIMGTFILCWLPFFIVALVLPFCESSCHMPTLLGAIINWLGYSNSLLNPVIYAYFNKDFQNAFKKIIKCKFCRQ
Description: as §1, §2

5HT3 = molecular target: T5, 5HT3 (Homo sapiens, UniProt P46098); test: Receptor binding, 5HT3; settings: CHO cells
T5 construct: host or cells: CHO cells
T5 sequence (P46098 24-478): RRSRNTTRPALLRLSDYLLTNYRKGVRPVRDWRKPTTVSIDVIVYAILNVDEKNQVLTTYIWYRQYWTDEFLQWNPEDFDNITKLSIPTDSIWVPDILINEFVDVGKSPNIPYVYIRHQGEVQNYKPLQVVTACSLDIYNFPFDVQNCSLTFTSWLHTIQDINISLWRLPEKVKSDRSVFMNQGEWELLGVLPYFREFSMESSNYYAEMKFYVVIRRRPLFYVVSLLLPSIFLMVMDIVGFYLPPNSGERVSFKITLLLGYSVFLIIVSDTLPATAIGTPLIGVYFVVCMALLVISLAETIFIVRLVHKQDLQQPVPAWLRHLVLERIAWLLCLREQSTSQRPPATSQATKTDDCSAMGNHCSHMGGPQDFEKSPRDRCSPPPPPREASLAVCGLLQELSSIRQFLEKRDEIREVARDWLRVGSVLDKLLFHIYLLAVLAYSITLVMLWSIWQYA
Description: as §1

rats [1] = test: Microdialysis of prefrontal cortex and nucleus accumbens; settings: for 5-HIAA in NAc / DOPAC in NAc / HVA in NAc / dopamine level in NAc / 5-HIAA in PFC / DOPAC in PFC / HVA in PFC / dopamine level in PFC: microdialysis; for 5-HIAA in NAc / DOPAC in NAc / HVA in NAc / dopamine level in NAc: nucleus accumbens; for 5-HIAA in PFC / DOPAC in PFC / HVA in PFC / dopamine level in PFC: prefrontal cortex;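 on all read-outs here: dialysate collected every 10 min from freely moving rats, analysed by HPLC with electrochemical detection, after four stable baseline samples (under 10% variation) preceding drug dosing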
Description: Rats received subcutaneous injections of an analgesic (ketoprofen 0.05 mL or buprenorphine, 0.1 mL) and sterile saline (0.9% NaCl, ˜3 mL). Once shaved and cleaned, the heads were secured in the stereotaxic frame in flat skull position for bilateral implantation of stainless steel microdialysis guide cannulae (19 gauge×15 mm) in the nucleus accumbens (NAc) (from bregma +1.7 mm anterior and ±1.1 mm medial; from dura −1.0 mm ventral) or medial prefrontal cortex (mPFC) (+3.0 mm anterior, ±0.6 mm medial; −1.0 mm ventral). […] Rats were allowed to rest with heat support until they regained consciousness, and then given a one-week recovery period.
Microdialysis probes were assembled 1-2 days prior to microdialysis experiments. Probes were concentric in design, constructed from Filtral 12 AN69HF semi-permeable hollow fibres (2 mm length, 340 μm OD×4 mm, 65 kDalton molecular weight cut-off; Hospal, Neurnberg, Germany) and silica inlet-outlet lines (75/150 um ID/OD).
The day prior to microdialysis experiments, probes were connected to an Instech dual-channel liquid swivel (Plymouth Meeting, Pa.) and flushed with artificial cerebrospinal fluid (aCSF). […] Following DA recovery tests, probes were implanted via the guide cannulae (dialysis membrane spanned −4.8 to −6.8 mm ventrally for NAc; −1.6 to −3.6 mm for mPFC). Rats remained in the testing chamber overnight (14-16 hr) with aCSF perfusing continuously through the probes at 1 μL/min In the morning, microdialysis samples were collected at 10 min intervals and assayed for DA, DOPAC, homovanillic acid (HVA) and 5-HIAA content. Once baseline levels were determined to be stable for four consecutive samples (less than 10% fluctuation), the drug treatment phase of each experiment was initiated.
Microdialysis samples were analyzed immediately after collection using high pressure liquid chromatography (HPLC) with electrochemical detection. […] The mobile phase [70 mM sodium acetate buffer, 40 mg/L EDTA and 50 mg/L of sodium dodecyl sulfate (adjustable), pH 4.0, 10% methanol] flowed through the system at 0.17 mL/min EZChrome Elite software (Scientific Software, Pleasanton, Calif.) was used to acquire and analyze chromatographic data.
After the experiments, rats were deeply anesthetized, brains were removed and stored in 20% w/v sucrose and 4% v/v paraformaldehyde. Brains were sliced into 50 um coronal sections, stained with cresyl violet and examined for probe placement.
Microdialysis probes (2 mm active membrane) were implanted in the NAc and mPFC ˜16 hrs prior to start of the experiment and continuously perfused aCSF.

D3 = molecular target: T6, D3 (Homo sapiens, UniProt P35462); test: Receptor binding, dopamine D3; settings: receptor expressed in CHO cells
T6 construct: host or cells: CHO cells
Description: as §1, §2

rats [2] = test: Temporal order recognition (radial arm maze); settings: for Arm Entries / Distance Travelled: 1.0 mg/kg govadine isomers, 5.0 mg/kg clozapine; for temporal order effect: injected 15 min before test trial
Description: The task exploits a rat's natural preference for novel locations. Each animal received 3 separate trials where access to two arms of an eight arm radial arm maze was granted. During the first trial, two arms were selected at random for exploration, and animals were allowed to explore these arms for 2 min After this time, they were taken off the maze and returned to their home cage. 1 hour later they were placed back on the maze and two new arms were randomly selected for 2 min of exploration.
Time spent in each arm (recent and old) was recorded as well as total distance traveled and the total number of arm entries in Noldus EthoVision 3.1 (Leesburg, Va.).

D1 = D1 (Homo sapiens, UniProt P21728); test: Receptor binding, dopamine D1; design: host or cells: CHO cells; settings: for Ki: receptor expressed in CHO cells, read-out: Ki, D1
Description: as §1, §2

5HT2C = molecular target: T7, 5HT2C (Homo sapiens, UniProt P28335); test: Receptor binding, 5HT2C; settings: receptor expressed in CHO cells
T7 construct: host or cells: CHO cells
T7 sequence (P28335 33-458): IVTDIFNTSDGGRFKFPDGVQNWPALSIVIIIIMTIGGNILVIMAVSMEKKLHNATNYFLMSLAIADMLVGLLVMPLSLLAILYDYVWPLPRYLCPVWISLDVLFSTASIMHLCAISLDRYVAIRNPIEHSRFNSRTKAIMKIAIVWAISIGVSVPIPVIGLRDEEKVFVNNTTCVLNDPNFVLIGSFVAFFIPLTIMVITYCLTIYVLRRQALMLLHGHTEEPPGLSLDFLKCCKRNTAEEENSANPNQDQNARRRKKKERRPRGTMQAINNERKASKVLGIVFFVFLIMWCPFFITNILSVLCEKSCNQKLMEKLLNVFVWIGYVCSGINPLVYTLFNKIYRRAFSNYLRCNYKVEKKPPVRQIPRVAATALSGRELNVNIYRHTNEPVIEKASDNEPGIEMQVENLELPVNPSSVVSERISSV
Description: as §1, §2

D1, sequence (P21728 whole entry): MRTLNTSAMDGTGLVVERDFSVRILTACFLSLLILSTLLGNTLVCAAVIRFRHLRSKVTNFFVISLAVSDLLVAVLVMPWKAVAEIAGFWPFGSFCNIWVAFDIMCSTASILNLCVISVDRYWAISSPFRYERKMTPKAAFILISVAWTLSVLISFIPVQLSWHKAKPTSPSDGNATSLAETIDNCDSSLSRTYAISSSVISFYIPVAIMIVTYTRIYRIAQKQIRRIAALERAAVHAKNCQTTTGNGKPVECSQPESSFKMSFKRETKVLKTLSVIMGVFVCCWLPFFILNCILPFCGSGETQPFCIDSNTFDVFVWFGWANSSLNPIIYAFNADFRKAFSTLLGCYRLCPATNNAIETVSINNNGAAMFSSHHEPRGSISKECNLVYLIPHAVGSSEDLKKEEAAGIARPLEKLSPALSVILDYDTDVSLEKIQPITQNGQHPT
T2 sequence (P14416 whole entry): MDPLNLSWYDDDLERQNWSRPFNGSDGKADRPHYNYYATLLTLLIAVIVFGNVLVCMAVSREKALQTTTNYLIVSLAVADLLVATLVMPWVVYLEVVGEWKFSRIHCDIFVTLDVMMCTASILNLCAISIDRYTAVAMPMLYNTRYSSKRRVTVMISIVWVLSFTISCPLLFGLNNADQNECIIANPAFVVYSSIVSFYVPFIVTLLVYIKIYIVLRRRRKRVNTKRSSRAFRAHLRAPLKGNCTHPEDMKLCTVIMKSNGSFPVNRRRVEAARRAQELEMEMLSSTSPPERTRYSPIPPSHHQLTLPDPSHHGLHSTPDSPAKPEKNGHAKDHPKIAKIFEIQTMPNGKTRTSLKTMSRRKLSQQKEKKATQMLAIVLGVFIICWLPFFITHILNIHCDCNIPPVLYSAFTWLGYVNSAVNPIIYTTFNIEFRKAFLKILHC
T3 sequence (P28223 whole entry, species assumed): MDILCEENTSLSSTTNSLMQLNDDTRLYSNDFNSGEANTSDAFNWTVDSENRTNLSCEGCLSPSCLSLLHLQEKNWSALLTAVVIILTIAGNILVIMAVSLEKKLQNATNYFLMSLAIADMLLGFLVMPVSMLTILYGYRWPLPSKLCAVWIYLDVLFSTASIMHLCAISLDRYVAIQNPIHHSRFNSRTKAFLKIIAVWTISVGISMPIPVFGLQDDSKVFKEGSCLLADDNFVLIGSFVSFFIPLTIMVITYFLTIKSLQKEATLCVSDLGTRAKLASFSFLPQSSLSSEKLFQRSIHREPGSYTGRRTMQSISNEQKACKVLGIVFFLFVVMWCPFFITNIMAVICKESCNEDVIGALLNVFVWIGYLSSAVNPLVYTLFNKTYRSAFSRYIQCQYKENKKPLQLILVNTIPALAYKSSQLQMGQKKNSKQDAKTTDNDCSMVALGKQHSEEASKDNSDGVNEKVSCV
T6 sequence (P35462 whole entry): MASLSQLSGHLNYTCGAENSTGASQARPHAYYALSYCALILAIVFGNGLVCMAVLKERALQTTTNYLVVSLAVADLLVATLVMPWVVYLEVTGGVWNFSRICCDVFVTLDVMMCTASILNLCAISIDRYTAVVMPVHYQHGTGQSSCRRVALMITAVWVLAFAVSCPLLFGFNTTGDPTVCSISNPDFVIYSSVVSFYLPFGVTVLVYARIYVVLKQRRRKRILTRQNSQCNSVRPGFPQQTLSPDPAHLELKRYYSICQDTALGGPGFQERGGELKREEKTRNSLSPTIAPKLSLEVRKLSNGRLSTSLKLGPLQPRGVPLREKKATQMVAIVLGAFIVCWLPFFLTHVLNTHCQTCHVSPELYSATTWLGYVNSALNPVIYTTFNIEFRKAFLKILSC

Compound | inhibition at 10 µM (D4.2) [%] | binding affinity to the D2 receptor (D2L) | Ki (D2L) [µM] | Ki (5HT2A) [µM] | Ki (5HT1A) [µM] | inhibition at 10 µM (5HT3) [%] | 5-HIAA in NAc (rats [1]) | DOPAC in NAc (rats [1]) | HVA in NAc (rats [1]) | dopamine level in NAc (rats [1]) | 5-HIAA in PFC (rats [1]) | DOPAC in PFC (rats [1]) | HVA in PFC (rats [1]) | dopamine level in PFC (rats [1]) | Ki (D3) [µM] | Arm Entries (rats [2]; 45 min. delay) | Distance Travelled (rats [2]; 45 min. delay) | temporal order effect (rats [2]; 45 min delay) | temporal order effect (rats [2]; 4 hr delay) | Arm Entries (rats [2]; 4 hr. delay) | also measured
COc1cc2c(cc1O)CN1CCc3cc(OC)c(O)cc3[C@H]1C2 [d-govadine] | 20 | weak affinity | 1.34 | 11.8 | 18.2 | -8 | not the NAc | no increase observed | no increase observed | not in the NAc | increased | increased | increased | selectively increased | 0.606 | 14.8 ± 1.9 | 2433 ± 363 | abolished | restored temporal order recognition | 11 ± 1.1 | Distance Travelled (rats [2]; 4 hr. delay): 2091 ± 114; binding affinity to the D1 receptor (D1): strong binding affinity; Ki (D1): 0.00875 µM; Ki (5HT2C): 46.5 µM
COc1cc2c(cc1O)CN1CCc3cc(OC)c(O)cc3[C@@H]1C2 [l-govadine] | 21 | strong affinity | 0.165 | 11.1 | 15.2 | 5 | No increase | increase | increase | increased | No increase | increase | increase | increased | 0.548 | 3.67 ± 1.9 | 587.7 ± 109 | abolished | no temporal order effect | 3.5 ± 0.9 | DA efflux in NAc and mPFC compared to control (rats [1]; 1 mg/kg, Example 15): enhanced DA efflux; Distance Travelled (rats [2]; 4 hr. delay): 824 ± 135; binding affinity to the D1 receptor (D1): strong affinity; Ki (D1): 0.00577 µM; Ki (5HT2C): 45.2 µM
